Calls of active or inactive are those of the source.
How the values were obtained:
[1] = HeLa cell cytotoxicity, dose response, cytotoxicity control for MgcRacGAP inhibitor project (AID 624300); type: functional
[2] = molecular target: T1, Rac GTPase-activating protein 1 (Homo sapiens, UniProt Q9H0H5); test: MgcRacGAP GTPase-activating activity inhibitors, confirmation, biochemical, ADP Hunter fluorescence, primary and confirmatory (AID 624330); type: functional
T1 sequence (Q9H0H5 whole entry): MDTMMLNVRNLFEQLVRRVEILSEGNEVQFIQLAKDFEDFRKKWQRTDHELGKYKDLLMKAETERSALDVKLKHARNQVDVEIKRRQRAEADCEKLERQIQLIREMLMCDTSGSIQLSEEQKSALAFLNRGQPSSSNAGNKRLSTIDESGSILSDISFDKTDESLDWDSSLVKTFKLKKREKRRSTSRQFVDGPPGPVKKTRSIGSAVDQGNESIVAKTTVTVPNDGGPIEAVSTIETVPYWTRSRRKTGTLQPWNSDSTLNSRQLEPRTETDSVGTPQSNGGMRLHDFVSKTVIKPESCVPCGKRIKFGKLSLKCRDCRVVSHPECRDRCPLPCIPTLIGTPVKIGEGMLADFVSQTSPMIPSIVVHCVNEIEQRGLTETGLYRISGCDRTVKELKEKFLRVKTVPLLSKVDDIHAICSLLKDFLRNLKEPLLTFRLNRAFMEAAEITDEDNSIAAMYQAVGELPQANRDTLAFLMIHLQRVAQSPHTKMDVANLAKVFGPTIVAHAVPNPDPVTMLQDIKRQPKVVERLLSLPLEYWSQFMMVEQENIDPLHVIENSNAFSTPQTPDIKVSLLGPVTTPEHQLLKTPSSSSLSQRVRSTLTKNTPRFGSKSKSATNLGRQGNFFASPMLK

[3] = ADAM10 protease inhibitors, dose response, selectivity assay for ADAM17 exosite inhibitor project, biochemical, FRET peptide substrate, recombinant human ADAM10 (AID 743259);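 further: ADAM10 enzyme cleaving a FRET peptide substrate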
[4] = molecular target: Disintegrin and metalloproteinase domain-containing protein 17 (Homo sapiens, UniProt P78536); test: exosite inhibitors of ADAM17, dose response, biochemical (AID 743260)
[5] = intracellular Trypanosoma cruzi inhibitors in host cells – cell-based, plate reader, cherry-pick samples, set 3, dose response (AID 651818); type: functional;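 further: compounds incubated with infected cells for about four days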
Paired box protein Pax-8 = Paired box protein Pax-8 (Homo sapiens, UniProt Q06710); test: inhibitors of PAX8-driven TPO luciferase reporter, dose response, RMG-I cells, cherry-pick (AID 687027); type: functional, cell-based;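 further: luciferase reporter driven by Pax8 target thyroperoxidase promoter measured by SteadyGlo luminescence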
Mu-type opioid receptor = Mu-type opioid receptor (Homo sapiens, UniProt P35372); type: functional, cell-based;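 further: U2OS cells with beta-arrestin recruitment to OPRM1 by beta-gal complementation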
[6] = molecular target: 5-hydroxytryptamine receptor 2A (Mus musculus, UniProt P35363); type: functional, cell-based;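 further: CHO-K1 cells with tagged receptor and beta-arrestin; agonist potency measured as compound-induced activation of the receptor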
[7] = molecular target: Mitogen-activated protein kinase 10 (Homo sapiens, UniProt P53779); test: Dose response biochemical screening assay for inhibitors of c-Jun N-Terminal Kinase 3 (JNK3). [Related pubchem assays: 746 ]
[8] = HEK293T cytotoxicity, dose response, cytotoxicity control for miR-122 modulator project, cell-based, inhibitor set, cherry-pick, set 2 (AID 720697); type: functional
[9] = cytotoxicity in OVCAR8 ovarian cancer cells, dose response, PAX8 project, cell-based, plate reader, dry powder samples (AID 743197); type: functional; conditions: OVCAR-8
[10] = inhibitors of clade B AD8 Env fusion, dose response, cell-based, cherry-pick (AID 652062); type: functional;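 further: luciferase signal from cell-cell fusion driven by HIV-1 clade B AD8 Env; potency is for inhibitors of fusion seen as a drop in luminescence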
[11] = inhibitors of HIV Env-driven cell fusion, dose response, cherry-pick (AID 652057); type: functional, cell-based
[12] = C. albicans growth with fluconazole, confirmation, fluorescence, retest (AID 2467); type: functional, cell-based
[13] = microbe, parasite or virus in culture; type: functional; conditions: Mycobacterium tuberculosis
[14] = molecular target: ATP-dependent molecular chaperone HSP82 (Candida albicans (strain WO-1) (Yeast), UniProt C4YTQ8); test: loss of DOC-induced GRE-beta-galactosidase reporter signal, dose response, Hsp90 inhibitor project, S. cerevisiae, luminescence (AID 2400); type: functional, cell-based;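 further: beta-galactosidase luminescence from glucocorticoid response element reporter as proxy for Hsp90 function; inhibitor potency where signal loss means Hsp90 inhibition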
[15] = NIH-3T3 fibroblast cytotoxicity, dose response, cytotoxicity control, cell-based, fluorescence, Alamar Blue, secondary assay (AID 2327); type: functional;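 further: NIH-3T3 mouse fibroblasts cultured with fluconazole at 8 µg/mL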
[16] = molecular target: T2, Serine/threonine-protein phosphatase (Candida dubliniensis (strain CD36 / CBS 7987 / NCPF 3949 / NRRLY-17841) (Yeast), UniProt B9W6M3); test: calcineurin pathway inhibitors in yeast reporter, dose response, S. cerevisiae, CDRE-lacZ, luminescence, secondary (AID 2388); type: functional, cell-based;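 further: yeast reporter cells carrying a calcineurin-responsive lacZ construct stimulated with calcium chloride; luminescent beta-galactosidase reporter signal in whole cells rather than isolated phosphatase activity; potency for inhibition where a drop in reporter signal means calcineurin blockade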
T2 sequence (B9W6M3 whole entry): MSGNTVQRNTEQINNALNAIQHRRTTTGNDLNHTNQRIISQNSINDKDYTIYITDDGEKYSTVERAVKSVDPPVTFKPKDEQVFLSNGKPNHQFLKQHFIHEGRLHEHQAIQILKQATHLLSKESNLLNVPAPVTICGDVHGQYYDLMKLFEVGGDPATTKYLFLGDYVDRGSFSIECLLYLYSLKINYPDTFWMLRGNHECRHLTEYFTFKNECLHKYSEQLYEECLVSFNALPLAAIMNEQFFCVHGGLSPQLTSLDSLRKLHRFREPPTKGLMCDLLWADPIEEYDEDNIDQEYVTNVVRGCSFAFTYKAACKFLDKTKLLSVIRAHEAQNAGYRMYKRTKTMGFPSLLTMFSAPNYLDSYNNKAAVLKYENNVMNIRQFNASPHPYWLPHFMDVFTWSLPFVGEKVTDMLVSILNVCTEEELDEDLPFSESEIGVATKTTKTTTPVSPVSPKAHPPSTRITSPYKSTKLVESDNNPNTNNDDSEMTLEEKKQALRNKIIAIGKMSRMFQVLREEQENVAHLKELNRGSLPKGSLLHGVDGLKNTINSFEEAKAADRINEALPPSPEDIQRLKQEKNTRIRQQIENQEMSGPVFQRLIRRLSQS

[17] = molecular target: Heat shock protein HSP 90-alpha (Homo sapiens, UniProt P07900); test: Luminescence-based dose response biochemical high throughput screening assay for inhibitors of the Heat Shock Protein 90 (HSP90). [Related pubchem assays: 1831 (Summary AID.), 1846 (Confirmation screen.), 1789 (Primary screen.)]
[18] = inhibitors of intracellular T. cruzi replication, confirmation, NIH3T3 host cells, beta-gal luminescence (AID 2044); type: functional, cell-based;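 further: intracellular parasites grown in NIH/3T3 mouse fibroblasts as host cells; luminescent beta-galactosidase reporter signal from transgenic T. cruzi replicating inside host cells; inhibitors lower the luminescence signal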
[19] = cytotoxicity toward NIH3T3 fibroblasts, dose response, counter-screen, cell-based, ATP luminescence, mouse fibroblasts (AID 2010); type: functional;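 further: cells exposed to compound for about 90 hours before reading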
Major prion protein = Major prion protein (Homo sapiens, UniProt P04156); type: functional, cell-based
Estrogen receptor beta = Estrogen receptor beta (Homo sapiens, UniProt Q92731);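 further: recombinant ER-beta bound to coactivator SRC1 peptide in presence of estradiol agonist; inhibitors block coactivator peptide binding and lower the FRET signal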
[20] = molecular target: T3, Mannose-6-phosphate isomerase (Homo sapiens, UniProt P34949); test: human PMI inhibitors, high substrate, primary screen, biochemical, fluorescence intensity, high mannose 6-phosphate (AID 1220)
T3 sequence (P34949 whole entry): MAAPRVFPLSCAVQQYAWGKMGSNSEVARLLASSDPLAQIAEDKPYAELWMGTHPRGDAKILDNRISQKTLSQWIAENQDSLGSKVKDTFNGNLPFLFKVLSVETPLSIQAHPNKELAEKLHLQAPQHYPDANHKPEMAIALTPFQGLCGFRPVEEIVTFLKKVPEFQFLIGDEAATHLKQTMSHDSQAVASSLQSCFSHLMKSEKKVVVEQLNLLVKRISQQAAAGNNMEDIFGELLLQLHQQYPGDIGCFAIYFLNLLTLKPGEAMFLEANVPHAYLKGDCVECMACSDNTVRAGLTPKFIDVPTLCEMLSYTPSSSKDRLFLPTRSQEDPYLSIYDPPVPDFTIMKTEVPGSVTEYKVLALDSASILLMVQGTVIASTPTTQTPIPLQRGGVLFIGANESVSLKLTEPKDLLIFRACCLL

Large T antigen = Large T antigen (Simian virus 40, UniProt P03070); type: functional, Betapolyomavirus macacae;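 further: Confirmatory-stage PubChem screen for compounds that inhibit SV40 T antigen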
[21] = molecular target: T4, Polyadenylate-binding protein 1 (Homo sapiens, UniProt P11940); test: PABP1 MLLE–PAM2 binding inhibitor potency, dose response, biochemical, fluorescence polarization, FITC-PAM2 peptide (AID 602259); type: functional; conditions: read-out: IC50_Mean
[22] = molecular target: DNA dC->dU-editing enzyme APOBEC-3A (Homo sapiens, UniProt P31941); test: APOBEC3A DNA deaminase inhibitors, dose response, biochemical (AID 504722); type: functional
[23] = molecular target: DNA dC->dU-editing enzyme APOBEC-3G (Homo sapiens, UniProt Q9HC16); test: Dose Response confirmation of small molecule APOBEC3G DNA Deaminase Inhibitors via a fluorescence-based single-stranded DNA deaminase assay. [Related pubchem assays (depositor defined):AID493012, AID493028]; type: functional
[24] = molecular target: T4, Polyadenylate-binding protein 1; test: PABP1 MLLE–PAM2 interaction inhibitors, dose response, miRNA deadenylation inhibitor project, biochemical, fluorescence polarization, Cy5-PAM2 peptide, secondary (AID 602260); type: functional; conditions: read-out: IC50_Mean
[25] = molecular target: T3, Mannose-6-phosphate isomerase; test: inhibitors of human PMI, primary screen, biochemical, fluorescence intensity, coupled assay (AID 1209)

Cn1nccc1C(=O)Nc1ccc(OC(=O)c2ccnn2C)cc1
CC50 [1]: 100 µM (active) | IC50 [2]: 16.7 µM (active)

CCOc1cccc(OCCOc2ccc(C(=O)c3ccccc3)cc2)c1
IC50 [3]: > 69.5 µM (inactive) | IC50 [4]: > 69.5 µM (inactive)

Cc1ccc(S(=O)(=O)Nc2cccc3c2O[C@@H](CN(C)Cc2ccc(Oc4ccccc4)cc2)[C@@H](C)CN([C@H](C)CO)C3=O)cc1
AC50 [5]: 2.89 µM (active) | AC50 (Paired box protein Pax-8): 12.2 µM (active)

CCCN1CCC[C@H](c2cccc(O)c2)C1
EC50 (Mu-type opioid receptor): 92.4 µM (inactive) | EC50 [6]: 0.711 µM (active)

COc1cccc(N2CCN(Cc3nc(N)nc(N4CCCc5ccccc54)n3)CC2)c1
EC50 (Mu-type opioid receptor): 92.4 µM (inactive) | EC50 [6]: 76.1 µM (inactive)

COc1cc(CC(=O)Nc2ncc(C)s2)cc(OC)c1OC
IC50 [7]: 13.3 µM (not active)

C[C@H](NC(=O)C[C@@H]1CC[C@H]2[C@H](COc3ccc(NS(=O)(=O)c4ccc(Cl)cc4)cc3C(=O)N2C)O1)c1ccccc1
AC50 [8]: 9.74 µM (active)

C[C@@H]1CCCCO[C@@H](CN(C)Cc2ccncc2)[C@H](C)CN([C@H](C)CO)C(=O)c2cc(NC(=O)Nc3ccc(C(F)(F)F)cc3)ccc2O1
AC50 [9]: 53.8 µM (active) | AC50 (Paired box protein Pax-8): 6.48 µM (active)

Cc1ccccc1S(=O)(=O)N1C[C@H](O)COC[C@H]2O[C@@H](CC(=O)NCc3ccccc3Cl)CC[C@@H]21
AC50 [10]: 6.43 µM (active) | AC50 [11]: 1.12 µM (active)

Cc1ccnc(Sc2ccc([N+](=O)[O-])cc2[N+](=O)[O-])n1
EC50 [12]: 0.91 µM (active) | CC50 [13]: 7.25 µM (active) | EC50 [14]: 23.6 µM (active) | EC50 [15]: 14.2 µM (active) | EC50 [16]: > 180 µM (inactive)

CCOc1ccc(-c2nc(CN(Cc3ccccc3)C[C@@H]3CCC(=O)N3)c(C)o2)cc1
IC50 [17]: 3.05 µM (active)

Cc1ccc(S(=O)(=O)N(CCCO)CC(O)CON=C2c3ccccc3-c3ccccc32)cc1 (stereo not drawn)
IC50 [3]: > 7.72 µM (active) | EC50 [18]: 1.6 µM (active) | EC50 [19]: > 60 µM (not active) | IC50 [4]: > 69.5 µM (inactive)

C[C@@H]1CCCCO[C@@H](CN(C)Cc2ccc(Cl)c(Cl)c2)[C@H](C)CN([C@@H](C)CO)C(=O)c2cc(NS(=O)(=O)c3ccc(Cl)cc3)ccc2O1
AC50 [9]: 44 µM (active) | AC50 (Paired box protein Pax-8): 7 µM (active)

c1ccc(N2CCN(Cc3ccc4c(c3)OCO4)CC2)nc1
EC50 (Mu-type opioid receptor): 92.5 µM (inactive) | EC50 [6]: 0.0228 µM (active)

COC(=O)CSc1nc(-c2ccccc2)nc2ccc(F)cc12
IC50 (Major prion protein): 2.56 µM (active) | IC50 (cells): > 138 µM (inactive)

O=S(=O)(Nc1ncnc2sc3c(c12)CCC3)c1ccc2ccccc2c1
IC50 (Estrogen receptor beta): 25 µM (active)

Cc1ccc2[nH]c3c(c2c1)CCc1c[nH]nc1-3
IC50 [7]: 16.4 µM (not active) | IC50 [20]: 43.4 µM (active)

CCCn1c(N)c(C(=O)CSc2nncs2)c(=O)[nH]c1=O
IC50 (Major prion protein): 5.88 µM (active) | IC50 (cells): > 138 µM (inactive)

c1ccc2c(c1)nc(N1CCOCC1)c1c3ccccc3[nH]c21
IC50 [7]: 30.4 µM (not active)

CCc1cc(S)n2c(nc3ccccc32)c1C#N
IC50 (Large T antigen): 99.8 µM (active) | EC50 [12]: 0.254 µM (active) | EC50 [14]: > 150 µM (inactive) | EC50 [15]: > 150 µM (inactive) | EC50 [16]: > 180 µM (inactive)

CCN(c1ccccc1)S(=O)(=O)c1ccc(N2CCN(c3ccc(O)cc3)CC2)nc1
CC50 [1]: 100 µM (active) | IC50 [2]: 40.5 µM (active)

COc1ccc(CN(C)C[C@H]2Oc3ccc(NC(=O)Nc4ccc(C(F)(F)F)cc4)cc3CC(=O)N([C@H](C)CO)C[C@H]2C)cc1
AC50 [5]: 3.5 µM (active)

C[C@@H]1CCCCO[C@H](CN(C)S(=O)(=O)c2cccs2)[C@@H](C)CN([C@H](C)CO)C(=O)c2cc(NC(=O)Nc3ccc(C(F)(F)F)cc3)ccc2O1
AC50 [5]: 4.91 µM (active)

CCn1c(O)nc(CS(=O)(=O)c2ccccc2)c1C
IC50 [21]: > 66 µM (inactive) | IC50 [20]: 1.23 µM (active) | IC50 [22]: > 100 µM (inactive) | IC50 [23]: 6.9 µM (active) | IC50 [24]: > 66 µM (inactive)

CC(C)(C)N1C(=O)Cc2c1nc(N)c1c(N)nc(N3CCCCC3CO)c(C#N)c21 (stereo not drawn)
IC50 [20]: > 50 µM (not active) | IC50 [25]: > 50 µM (not active)

CCOC(=O)NC(=O)CSc1cc(C)c2cc(C)cc(C)c2n1
IC50 (Major prion protein): 9.4 µM (active) | IC50 (cells): > 138 µM (inactive)

COc1ccc(NC(=O)C2(C)Cc3c(-c4cccc(C(F)(F)F)c4)ccnc3O2)cn1 (stereo not drawn)
IC50 [3]: 32.4 µM (inactive) | IC50 [4]: > 69.5 µM (inactive)

From ChEMBL document CHEMBL1201862, “PubChem BioAssay data set” (2004)
